Source: ChEMBL document CHEMBL4270540, “Collagen Prolyl 4-Hydroxylase as a Therapeutic Target” (J Med Chem, 2018)

How the values were obtained:
[1] = Inhibition of collagen prolyl 4-hydroxylase (unknown origin) using 2-ketoglutarate as co-factor assessed as formation of [14C]succinate by ion-exchnage chromatographic method; design: species or system Homo sapiens
[2] = Inhibition of collagen prolyl 4-hydroxylase (unknown origin); design: species or system Homo sapiens
[3] = Inhibition of chicken collagen prolyl 4-hydroxylase; design: species or system Gallus gallus

IC50 [1] | Structure (SMILES) | further results
621 µM | C[C@@H](NC(=O)C(=O)O)C(=O)O | –
38.2 µM | C[C@H](NC(=O)C(=O)O)C(=O)O | –
– | O=C(O)c1ccc(C(=O)O)nc1 [PYRIDINE-2,5-DICARBOXYLIC ACID] | IC50 [2]: 5.5 µM
– | O=C(O)c1nnc2ccccc2c1O | IC50 [3]: 0.02 µM
90.7 µM | CC(NC(=O)C(=O)O)C(=O)O (racemic) | –
– | O=C(O)c1ncc2ccccc2c1O | IC50 [3]: 0.19 µM
2.89 µM | O=C(O)CNC(=O)C(=O)O [N-OXALYLGLYCINE] | –
– | COc1ccc(S(=O)(=O)NC(=O)c2ccc(C(=O)O)nc2)cc1 | IC50 [2]: 1 µM
